The text below walks through data of patent US20230365559A1, “NOVEL AMINOPYRIDINES AND THEIR USE IN TREATING CANCER” (priority 2020, published 2023).

Experiment [1] has as its target human DNA-PK (Homo sapiens, UniProt P78527). In words: Inhibition of DNA-PKcs kinase activity, HotSpot assay (Reaction Biology), [γ-33P]-ATP phosphorylation of peptide substrate. Format: biochemical.
The target in experiment [2] is human PI3Kα (p110α/p85α) (Homo sapiens, UniProt P42336). The experiment can be described thus: Inhibition of PI3Kα kinase activity, ADP-Glo Assay (Reaction Biology). It is filed as biochemical. Conditions: 10 μM ATP; mean of two replicates; Table 12; read-out: Inhibition of kinase activity (as IC50) PICK.
For experiment [3], the target named is ATM (Homo sapiens, UniProt Q13315). In words: ATM Human PIKK Kinase Enzymatic ELISA/EIA Assay, KinaseProfiler (Eurofins Discovery). Format: biochemical. The following applies: for remaining activity at 1 µM: read-out: ATM, Percent of control at 1 μM; for IC50: KinaseProfiler, Km ATP, Table 15, read-out: Inhibition of PIKK kinase activity ATM. (In an ELISA, binding on a coated surface is turned into a signal by an enzyme label.)

For experiment [4], the target named is ATR/ATRIP (Homo sapiens, UniProt Q13535). In words: ATR/ATRIP Human PIKK Kinase Enzymatic Radiometric Assay, KinaseProfiler (Eurofins Discovery). It is filed as biochemical. Conditions: Km ATP, Table 15, read-out: Inhibition of PIKK kinase activity ATR.
For experiment [5], the system named is UT-SCC-54C cells. The experiment can be described thus: Radiosensitisation of UT-SCC-54C HNSCC cells, regrowth (sulforhodamine B) assay, oxic (Table 16). The following applies: for IC50: Homo sapiens, read-out: IC50; for S50: compound in combination with 3 Gy of radiation, 50% inhibition of regrowth fraction, UT-SCC-54C. Format: cell-based, human.
The test system of experiment [6] is HAP1 cells. In words: Radiosensitisation of HAP1 wild type cells, regrowth assay. It is filed as cell-based, human. Conditions: for effect in unirradiated HAP1 cells: 0 Gy; for radiosensitisation / differential growth inhibition of HAP1 cells: 3 Gy cobalt-60 gamma irradiation relative to radiation-only; for IC50: Homo sapiens, HAP1, read-out: HAP1 wt IC50.
For experiment [7], the system named is HAP1/PRKDC−/− cells. The experiment can be described thus: Radiosensitisation of DNA-PK null HAP1/PRKDC−/− cells, regrowth assay. It is filed as cell-based, human. The following applies: for radiosensitisation / differential growth inhibition of DNA-PK null HAP1 line: 3 Gy, HAP1/PRKDC−/−; for IC50: Homo sapiens, HAP1.
Experiment [8] concerns UT-SCC-54C cells. The experiment can be described thus: Radiosensitisation of UT-SCC-54C HNSCC cells, clonogenic survival, oxic and anoxic (Table 18). Format: cell-based, human. The following applies: for Plating efficiency drug/no drug: no radiation.
The target in experiment [9] is human mTOR (Homo sapiens, UniProt P42345). The experiment can be described thus: Inhibition of mTOR kinase activity, HotSpot assay, phosphorylation of 4EPB1.
Experiment [10] addresses Ser2056 of DNA-PKcs (Homo sapiens, UniProt P78527). In words: Inhibition of cellular autophosphorylation at Ser2056 of DNA-PKcs in UT-SCC-54C cells, western immunoblotting. Format: cell-based. Conditions: oxia, 10 Gy, FIG. 7 (10 μM).
[11] abbreviates: 10 μM ATP, 10 μg/ml DNA, mean of two replicates, Table 12, read-out: Inhibition of kinase activity (as IC50) DNA-PK (converted).
Setting [12] is: HotSpot assay Reaction Biology Corp., Table 15, read-out: Inhibition of PIKK kinase activity DNA-PK.
Where [13] appears, read: Inhibition of PIKK kinase activity mTOR/FRAP (nM), HotSpot assay Reaction Biology Corp., Table 15.
Where [14] appears, read: Inhibition of kinase activity (as IC50) mTOR (nM), 10 μM ATP, mean of two replicates, Table 12.

Several values for one entry are separate records, joined by “and”; a condition that tells them apart may be missing. Identical values can stand only once. Like-named read-outs stand apart in the source and are kept apart here.

Chain of human PI3Kα (p110α/p85α) (P42336 whole entry): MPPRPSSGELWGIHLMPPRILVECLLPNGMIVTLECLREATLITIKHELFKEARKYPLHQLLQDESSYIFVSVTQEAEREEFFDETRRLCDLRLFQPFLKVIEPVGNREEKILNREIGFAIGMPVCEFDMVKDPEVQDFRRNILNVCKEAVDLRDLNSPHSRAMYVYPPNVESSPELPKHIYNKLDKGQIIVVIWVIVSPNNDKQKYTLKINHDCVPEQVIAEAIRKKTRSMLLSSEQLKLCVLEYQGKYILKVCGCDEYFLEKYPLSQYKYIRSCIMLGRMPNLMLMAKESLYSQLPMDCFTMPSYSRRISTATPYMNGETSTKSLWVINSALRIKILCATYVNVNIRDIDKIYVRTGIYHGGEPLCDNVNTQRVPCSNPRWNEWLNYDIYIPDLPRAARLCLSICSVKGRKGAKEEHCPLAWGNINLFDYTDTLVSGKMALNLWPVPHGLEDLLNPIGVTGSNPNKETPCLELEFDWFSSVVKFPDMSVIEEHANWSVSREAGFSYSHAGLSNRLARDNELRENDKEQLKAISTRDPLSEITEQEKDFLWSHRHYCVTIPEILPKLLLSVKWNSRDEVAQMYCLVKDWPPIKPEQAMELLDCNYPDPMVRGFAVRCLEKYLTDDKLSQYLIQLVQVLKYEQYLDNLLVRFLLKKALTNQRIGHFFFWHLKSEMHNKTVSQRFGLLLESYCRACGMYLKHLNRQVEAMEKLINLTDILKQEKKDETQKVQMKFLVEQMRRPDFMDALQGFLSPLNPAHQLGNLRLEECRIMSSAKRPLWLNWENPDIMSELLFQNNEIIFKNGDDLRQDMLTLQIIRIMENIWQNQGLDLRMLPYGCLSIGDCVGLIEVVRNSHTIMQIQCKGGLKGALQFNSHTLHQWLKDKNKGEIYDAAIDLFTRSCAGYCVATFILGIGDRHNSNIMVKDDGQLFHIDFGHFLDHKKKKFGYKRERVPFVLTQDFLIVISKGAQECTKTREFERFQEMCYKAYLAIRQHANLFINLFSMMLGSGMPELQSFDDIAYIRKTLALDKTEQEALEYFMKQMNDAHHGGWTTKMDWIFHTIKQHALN
Chain of human PI3Kα (p110α/p85α) (P27986 whole entry partner): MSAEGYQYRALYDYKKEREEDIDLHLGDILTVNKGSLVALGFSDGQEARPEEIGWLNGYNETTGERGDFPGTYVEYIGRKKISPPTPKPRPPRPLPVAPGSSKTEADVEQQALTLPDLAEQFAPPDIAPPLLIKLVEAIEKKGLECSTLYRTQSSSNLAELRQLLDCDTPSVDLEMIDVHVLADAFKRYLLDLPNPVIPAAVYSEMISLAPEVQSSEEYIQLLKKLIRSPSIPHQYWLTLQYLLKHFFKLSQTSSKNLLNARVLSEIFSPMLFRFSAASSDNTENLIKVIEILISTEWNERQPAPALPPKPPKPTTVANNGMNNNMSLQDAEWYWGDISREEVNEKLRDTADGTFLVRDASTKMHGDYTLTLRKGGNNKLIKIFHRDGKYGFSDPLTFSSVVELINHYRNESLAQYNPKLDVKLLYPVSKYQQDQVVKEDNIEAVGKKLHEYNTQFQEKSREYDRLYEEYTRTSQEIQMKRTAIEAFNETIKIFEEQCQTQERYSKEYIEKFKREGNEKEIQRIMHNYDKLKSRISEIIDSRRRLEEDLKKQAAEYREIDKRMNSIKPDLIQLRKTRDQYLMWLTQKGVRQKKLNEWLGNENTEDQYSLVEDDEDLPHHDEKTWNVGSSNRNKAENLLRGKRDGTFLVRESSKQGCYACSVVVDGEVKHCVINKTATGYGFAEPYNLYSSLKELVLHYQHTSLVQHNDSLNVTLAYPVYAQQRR
Chain of ATM (Q13315 whole entry): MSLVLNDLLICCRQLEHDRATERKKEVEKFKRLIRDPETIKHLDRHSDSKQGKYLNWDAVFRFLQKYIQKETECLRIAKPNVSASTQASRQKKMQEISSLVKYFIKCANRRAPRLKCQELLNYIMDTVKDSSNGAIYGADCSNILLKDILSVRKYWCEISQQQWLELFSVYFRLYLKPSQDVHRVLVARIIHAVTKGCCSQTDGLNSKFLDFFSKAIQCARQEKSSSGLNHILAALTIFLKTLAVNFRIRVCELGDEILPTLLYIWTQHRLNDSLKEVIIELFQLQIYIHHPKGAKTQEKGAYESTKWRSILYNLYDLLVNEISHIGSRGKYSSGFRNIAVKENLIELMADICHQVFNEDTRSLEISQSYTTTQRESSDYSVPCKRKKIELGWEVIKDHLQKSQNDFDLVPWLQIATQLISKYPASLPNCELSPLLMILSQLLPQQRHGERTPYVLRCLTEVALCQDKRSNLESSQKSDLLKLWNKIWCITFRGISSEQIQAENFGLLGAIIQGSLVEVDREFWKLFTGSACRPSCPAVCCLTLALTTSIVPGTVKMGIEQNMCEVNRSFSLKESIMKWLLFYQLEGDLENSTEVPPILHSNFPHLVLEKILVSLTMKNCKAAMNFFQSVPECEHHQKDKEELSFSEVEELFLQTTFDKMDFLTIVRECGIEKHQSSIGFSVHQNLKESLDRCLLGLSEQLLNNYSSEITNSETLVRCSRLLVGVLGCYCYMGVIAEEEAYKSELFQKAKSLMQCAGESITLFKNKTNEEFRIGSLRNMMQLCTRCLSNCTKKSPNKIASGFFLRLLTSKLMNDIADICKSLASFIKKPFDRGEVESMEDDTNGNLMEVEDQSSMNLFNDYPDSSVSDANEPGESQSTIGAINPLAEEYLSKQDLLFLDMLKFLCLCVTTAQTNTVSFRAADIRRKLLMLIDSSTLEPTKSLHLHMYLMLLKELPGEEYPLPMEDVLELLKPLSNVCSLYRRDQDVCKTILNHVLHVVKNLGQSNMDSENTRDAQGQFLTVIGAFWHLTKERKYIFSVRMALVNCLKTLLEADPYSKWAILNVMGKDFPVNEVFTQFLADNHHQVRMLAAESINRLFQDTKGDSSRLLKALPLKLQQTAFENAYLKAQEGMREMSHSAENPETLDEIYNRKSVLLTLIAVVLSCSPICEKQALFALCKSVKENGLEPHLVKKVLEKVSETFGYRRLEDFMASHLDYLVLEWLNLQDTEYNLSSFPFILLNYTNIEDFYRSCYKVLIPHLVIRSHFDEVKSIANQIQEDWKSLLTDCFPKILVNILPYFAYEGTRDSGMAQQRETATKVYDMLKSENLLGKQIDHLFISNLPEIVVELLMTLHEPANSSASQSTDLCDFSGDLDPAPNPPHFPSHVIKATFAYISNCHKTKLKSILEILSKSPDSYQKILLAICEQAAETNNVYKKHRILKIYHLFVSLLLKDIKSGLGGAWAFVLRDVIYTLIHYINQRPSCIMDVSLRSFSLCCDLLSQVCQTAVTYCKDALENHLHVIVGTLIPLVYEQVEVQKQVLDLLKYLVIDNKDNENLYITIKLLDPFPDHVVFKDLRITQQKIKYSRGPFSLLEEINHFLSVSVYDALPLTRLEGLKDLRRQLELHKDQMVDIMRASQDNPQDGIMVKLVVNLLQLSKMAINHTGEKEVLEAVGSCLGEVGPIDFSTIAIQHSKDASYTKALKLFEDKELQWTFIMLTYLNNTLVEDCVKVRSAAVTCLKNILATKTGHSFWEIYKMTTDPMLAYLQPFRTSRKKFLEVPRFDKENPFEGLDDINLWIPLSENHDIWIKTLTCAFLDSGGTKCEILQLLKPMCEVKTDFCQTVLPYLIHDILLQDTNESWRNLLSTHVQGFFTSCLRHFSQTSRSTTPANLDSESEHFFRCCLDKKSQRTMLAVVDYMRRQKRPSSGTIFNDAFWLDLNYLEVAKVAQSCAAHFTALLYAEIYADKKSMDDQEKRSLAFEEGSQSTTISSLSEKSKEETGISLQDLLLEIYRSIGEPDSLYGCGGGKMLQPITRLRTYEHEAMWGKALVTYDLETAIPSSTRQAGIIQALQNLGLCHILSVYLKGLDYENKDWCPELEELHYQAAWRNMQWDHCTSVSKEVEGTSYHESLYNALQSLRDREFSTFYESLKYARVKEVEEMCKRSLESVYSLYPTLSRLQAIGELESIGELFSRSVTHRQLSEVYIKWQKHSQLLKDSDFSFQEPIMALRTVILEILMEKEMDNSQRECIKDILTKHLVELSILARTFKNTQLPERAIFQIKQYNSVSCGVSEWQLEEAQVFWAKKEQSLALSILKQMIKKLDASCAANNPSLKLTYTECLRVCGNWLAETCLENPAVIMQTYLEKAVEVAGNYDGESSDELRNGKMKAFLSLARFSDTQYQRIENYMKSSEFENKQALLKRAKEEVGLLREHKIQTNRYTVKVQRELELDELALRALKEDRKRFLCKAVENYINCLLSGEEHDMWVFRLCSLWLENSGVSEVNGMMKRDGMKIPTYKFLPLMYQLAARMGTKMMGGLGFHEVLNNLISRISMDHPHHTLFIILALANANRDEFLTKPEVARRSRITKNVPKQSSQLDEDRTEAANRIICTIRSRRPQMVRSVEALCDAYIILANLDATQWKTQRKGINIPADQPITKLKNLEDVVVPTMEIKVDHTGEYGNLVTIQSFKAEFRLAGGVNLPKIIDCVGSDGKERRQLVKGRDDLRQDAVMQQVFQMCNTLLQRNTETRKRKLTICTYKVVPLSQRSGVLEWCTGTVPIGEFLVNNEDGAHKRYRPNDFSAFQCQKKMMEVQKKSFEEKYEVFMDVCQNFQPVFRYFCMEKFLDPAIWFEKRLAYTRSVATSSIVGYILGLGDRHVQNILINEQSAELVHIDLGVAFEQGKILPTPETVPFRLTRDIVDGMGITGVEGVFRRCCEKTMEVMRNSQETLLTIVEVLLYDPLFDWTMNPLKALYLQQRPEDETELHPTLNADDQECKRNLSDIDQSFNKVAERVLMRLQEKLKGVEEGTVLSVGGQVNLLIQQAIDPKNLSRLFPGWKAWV

Regarding `Cc1cc2ncnn2cc1Nc1cc2c(cn1)n(C)c(=O)n2C1CCOCC1` [Compound 125, 3-Methyl-6-((7-methyl-[1,2,4]triazolo[1,5-a]pyridin-6-yl)amino)-1-(tetrahydro-2H-pyran-4-yl)-1,3-dihydro-2H-imidazo[4,5-c]pyridin-2-one], the IC50 in experiment [1] (setting [11]) was 0.0143 µM; in [1] (setting [12]), 0.0143 µM; in [2] it was 10.7 µM; in experiment [4], above 1 µM; in experiment [5], above 10 µM; in experiment [6] it was above 10 µM. For the same compound, the results for the IC50 in experiment [7], in experiment [9] (setting [13]) and in experiment [9] (setting [14]) were above 10 µM, 43900 nM and 43900 nM, respectively. In experiment [3], the remaining activity at 1 µM came out at 74%. Further, the “S50” value in experiment [5] (oxic) was found to be 0.67 µM. Besides, the “effect in unirradiated HAP1 cells” value in experiment [6] was “little effect”. Also, the “radiosensitisation / differential growth inhibition of HAP1 cells” value in experiment [6] was “concentration-dependent radiosensitisation”. In addition, in [7], the “radiosensitisation / differential growth inhibition of DNA-PK null HAP1 line” value is “did not radiosensitise”. Besides, in experiment [8] (20% O2, compound conc 1 μM), the “D1 (radiation dose for 1% surviving fraction)” value is listed as 4.90 Gy. For the same compound, the “D10 (radiation dose for 10% surviving fraction)” value in experiment [8] (20% O2, compound conc 1 μM) is 2.49 Gy. The “SER1 (sensitiser enhancement ratio at 1% surviving fraction)” value in [8] (20% O2, compound conc 1 μM) worked out at 1.77. Moreover, the “SER10 (sensitiser enhancement ratio at 10% surviving fraction)” value in [8] (20% O2, compound conc 1 μM) is given as 2.17. Moreover, in experiment [8] (20% O2, compound conc 1 μM), the “Plating efficiency drug/no drug” value worked out at 1.02.
For `Cc1nc2cc(C)c(Nc3cc4c(cn3)n(C)c(=O)n4C3CCOCC3)cc2s1` [Compound 127, 6-((2,5-Dimethylbenzo[d]thiazol-6-yl)amino)-3-methyl-1-(tetrahydro-2H-pyran-4-yl)-1,3-dihydro-2H-imidazo[4,5-c]pyridin-2-one], the IC50 was 0.00711 µM in [1] (setting [11]); 0.00711 µM in [1] (setting [12]); 3.96 µM in [2]; 2.56 µM in [3]; above 10 µM in experiment [5]; above 10 µM in experiment [6]. In addition, the IC50 in experiment [7] is above 10 µM; in experiment [9] (setting [13]), 5420 nM; in experiment [9] (setting [14]), 5420 nM. Further, the “S50” value in [5] (oxic) is 0.22 µM. Moreover, the “effect in unirradiated HAP1 cells” value in experiment [6] is “little effect”. Further, the “radiosensitisation / differential growth inhibition of HAP1 cells” value in experiment [6] was “concentration-dependent radiosensitisation”. In addition, the “radiosensitisation / differential growth inhibition of DNA-PK null HAP1 line” value in [7] is “did not radiosensitise”.
Turning to `CCOC(=O)c1cnc2cc(C)c(Nc3cc4c(cn3)n(C)c(=O)n4C3CCOCC3)cn12` [Compound 129, Ethyl 7-Methyl-6-((3-methyl-2-oxo-1-(tetrahydro-2H-pyran-4-yl)-2,3-dihydro-1H-imidazo[4,5-c]pyridin-6-yl)amino)imidazo[1,2-a]pyridine-3-carboxylate], the IC50 in [1] (setting [11]) is 0.00257 µM; in experiment [1] (setting [12]), 0.00257 µM; in experiment [2], 0.314 µM; in [5], above 10 µM; in [6], above 10 µM; in experiment [7], above 10 µM. Besides, the IC50 in experiment [9] (setting [13]) was 18900 nM; in experiment [9] (setting [14]) it was 19000 nM. For the same compound, the remaining activity at 1 µM in [3] was 79%. In experiment [5] (oxic), the “S50” value was found to be 0.09 µM. In experiment [6], the “effect in unirradiated HAP1 cells” value is recorded as “little effect”. Besides, the “radiosensitisation / differential growth inhibition of HAP1 cells” value in experiment [6] was “concentration-dependent radiosensitisation”. Also, the “radiosensitisation / differential growth inhibition of DNA-PK null HAP1 line” value in experiment [7] is recorded as “did not radiosensitise”.
On to `Cn1c(=O)n(-c2ccc(C(C)(C)C#N)cc2)c2cc(Nc3ccc4ncccc4c3)ncc21` [Compound 213, 2-Methyl-2-(4-(3-methyl-2-oxo-6-(quinolin-6-ylamino)-2,3-dihydro-1H-imidazo[4,5-c]pyridin-1-yl)phenyl)propanenitrile], for which the IC50 was 0.00123 µM in experiment [1] (setting [11]), 0.00123 µM in experiment [1] (setting [12]), 1.73 µM in [2] and above 10 µM in [5]. The remaining activity at 1 µM in experiment [3] amounted to 68%. For the same compound, the “S50” value in [5] (oxic) came to 2.22 µM.
In the case of `COc1ccc(Nc2cc3c(cn2)n(C)c(=O)n3C2CCOCC2)cc1` [Compound 215, 6-((4-Methoxyphenyl)amino)-3-methyl-1-(tetrahydro-2H-pyran-4-yl)-1,3-dihydro-2H-imidazo[4,5-c]pyridin-2-one], the IC50 in [1] (setting [11]) was 0.051 µM; in [1] (setting [12]), 0.051 µM; in experiment [2] it was 12.5 µM; in experiment [5], above 10 µM; in [9] (setting [13]), 12300 nM; in experiment [9] (setting [14]), 12300 nM. Also, the remaining activity at 1 µM in experiment [3] is 90%. Besides, in experiment [5] (oxic), the “S50” value was 7.5 µM.
Consider `Cc1cc(OCc2cnc([N+](=O)[O-])n2C)ccc1Nc1cc2c(cn1)n(C)c(=O)n2C1CCOCC1` [Compound 236, 3-Methyl-6-((2-methyl-4-((1-methyl-2-nitro-1H-imidazol-5-yl)methoxy)phenyl)amino)-1-(tetrahydro-2H-pyran-4-yl)-1,3-dihydro-2H-imidazo[4,5-c]pyridin-2-one], for which the IC50 in experiment [1] (setting [11]) is 0.78 µM and 2.2 µM; in experiment [1] (setting [12]) it was 0.78 µM; in experiment [2], 16.2 µM and 52.3 µM; in experiment [3], 57.3 µM; in experiment [4], above 100 µM; in [5] it was above 10 µM. Besides, the IC50 is above 10 µM in [6]; above 10 µM in [7]; 92900 nM in experiment [9] (setting [13]); 92900 nM and > 100000 nM in experiment [9] (setting [14]). Besides, the “S50” value in experiment [5] (oxic) is above 10 µM. Also, the “radiosensitisation / differential growth inhibition of UT-SCC-54C cells” value in [5] (oxic, 0 or 3 Gy, regrowth assay) was “did not display any differential growth inhibition”. In experiment [6], the “radiosensitisation / differential growth inhibition of HAP1 cells” value is recorded as “did not demonstrate any differential growth inhibition”. Moreover, the “radiosensitisation / differential growth inhibition of DNA-PK null HAP1 line” value in [7] is “did not demonstrate any differential growth inhibition”. Also, the “D1 (radiation dose for 1% surviving fraction)” value in experiment [8] (0% O2, compound conc 1 μM) is 17.4 Gy; in experiment [8] (20% O2, compound conc 1 μM), 9.41 Gy. Also, the “D10 (radiation dose for 10% surviving fraction)” value was 9.96 Gy in experiment [8] (0% O2, compound conc 1 μM) and 6.06 Gy in [8] (20% O2, compound conc 1 μM). In addition, the “SER1 (sensitiser enhancement ratio at 1% surviving fraction)” value in experiment [8] (0% O2, compound conc 1 μM) amounted to 1.37; in experiment [8] (20% O2, compound conc 1 μM) it was 1.00. The “SER10 (sensitiser enhancement ratio at 10% surviving fraction)” value in experiment [8] (0% O2, compound conc 1 μM) was determined as 1.58; in experiment [8] (20% O2, compound conc 1 μM) it was 0.94. Besides, the “Plating efficiency drug/no drug” value in experiment [8] (0% O2, compound conc 1 μM) is 1.09; in [8] (20% O2, compound conc 1 μM) it was 1.05. Besides, the “SER (sensitiser enhancement ratio)” value in experiment [8] (UT-SCC-54C, anoxic conditions, clonogenic survival, FIG. 10) stood at 1.51. Moreover, the “sensitisation of UT-SCC-54C cells selectively under anoxia” value in [8] (oxic vs anoxic, clonogenic survival, FIGS. 9 and 10) was “provide sensitisation of UT-SCC-54C cells selectively under anoxia”.
With `COc1ccc([C@@H](O)c2cc(-c3ncnc4cc(N5CCOCC5)ccc34)c(F)cc2Cl)nn1` [Compound M3814, reference compound], in [10], the “inhibition of Ser2056 on DNA-PKcs” value is on record as “demonstrated inhibition”.
